Marks after values point to notes of the source that are not given here.
Tests used:
[1] = tested on: neuron-specific enolase (NSE); assay: Neuron-specific enolase (NSE) activity in rats with bilateral carotid occlusion (ELISA); format: in vivo; conditions: BCO; for NSE activity (dynamics of neurodestructive changes): n = 7
Protocol: The derivative of 3,2′-spiro-pyrrolo-2-oxindole was studied in conventionally effective dose of 10 mg/kg […] (iv)—dose that by the results of our previous study provided maximum antihypoxic activity of the SI-86compound. Reference drugs were injected intraperitoneally (ip). […] BCO was made to rats of control pathology and as therapy 0.9% NaCI solution was administered calculated for 2 ml/kg ip.
Pseudooperative rats were exposed to all interventions (anesthesia, skin incision, dissection of vessels) except arteries ligation that leveled traumatic effect of experimental conditions.
To determine neurospecific enolase, specific marker of cerebral ischemia,—to the period (4 th and 21 st day of CVA) in rat's blood was sampled by sagittal sinus puncture (0.2-0.4 ml). NSE activity was measured by ELISA using a set NSE EIA KIT (DAI, USA) on the instrument of the company “Hipson” (Czech Republic).

[2] = tested on: rats; assay: Acute normobaric hypoxic hypoxia with hypercapnia (ANHHH), life duration; format: in vivo; conditions: preventive administration; SI-86 and SI-108 10 mg/kg iv, mexydol 100 mg/kg ip
Protocol: The study of antihypoxic activity of 10 original derivatives of 3,2′-spiro-pyrrolo-2-oxindole was conducted on models of acute normobaric hypoxic hypoxia with hypercapnia (ANHHH) and acute asphyxia. ANHHH was modeled by means of rat arrangement into isolated pressure compartments (0.001 m^3). The observation conducted until the death of the animals. The antihypoxic activity was assessed by life duration (in minutes) in relation to the control taken as 100%, by the formula AA=tt/tk×100%, wherein AA—antihypoxic activity (%), tt—life duration of test animals, tc—life duration of control animals.
The preliminary screening of test substances was performed on ANHHH model. All derivatives were administered in the same dose of 10 mg/kg […] (iv) 1 hour prior to pathological state modeling. […] The effectiveness of a leader compound was evaluated at doses 5; 10 and 15 mg/kg iv. Mexydol was chosen as a reference drug having antihypoxic action in combination with antioxidant and membrane protective activity, which is successfully used in patients with CVA and IM. Mexydol was administered intraperitoneally (ip) at a dose of 100 mg/kg according to similar scheme.

What does the source list for `CSCC[C@@H]1N[C@@]2(C(=O)Nc3ccccc32)[C@@H]2C(=O)N(c3ccc(C)cc3)C(=O)[C@H]12` [SI-86, 5′-(4-Methylphenyl)-3′-[2-(methylthio)ethyl]-3a′,6a′-dihydro-2′H-spiro[indole-3,1′-pyrrolo[3,4-c]pyrrol]-2,4′,6′(1H,3′H,5′H)-trione]?
enzyme activity decreased in relation to the control pathology group ([1]; 96 hours): 2.03 times; enzyme activity decreased in relation to the control pathology group ([1]; 21 days): 3.84 times; effectiveness in reducing NSE better than citocoline ([1]; acute period): 1.6 times; NSE activity (dynamics of neurodestructive changes) ([1]; day 4, SI-86 10 mg/kg iv, citocoline 250 mg/kg ip): 0.61 ± 0.004*^#•; NSE activity (dynamics of neurodestructive changes) ([1]; day 21, same doses): 0.204 ± 0.015*^#•; effectiveness in reducing NSE better than citocoline ([1]; recovery period): 1.9 times; increase of life duration in rats in relation to control [2]: 33.7%
